Measured values: patent US20200080055A1, “COMPOSITIONS AND METHODS FOR GENERATING HAIR CELLS BY UPREGULATING PI3K” (Frequency Therapeutics, Inc., priority 2018, published 2020)
Entries after “also recorded” stand apart in the source; their conditions may differ.

What was measured:
[1] = test system: cochlear Lgr5 progenitor cells; test: Lgr5+ assay: expansion and enrichment of cochlear Lgr5 progenitor cells in 3D culture; format: cell-based, mouse
Excerpt: “Stem Cell Proliferation Assay” as used herein is an assay to determine the capacity for agent(s) to induce the creation of stem cells from a starting cell population. In an exemplary Stem Cell Proliferation Assay, the number of cells for an initial cell population is harvested from a Lgr5-GFP mouse such as a B6.129P2-Lgr5tm1(cre/ERT2)Cle/J mouse (also known as Lgr5-EGFP-IRES-creERT2 or Lgr5-GFP mouse, Jackson Lab Stock No: 008875) between the age of 0 to 5 days, by isolating the organ of Corti sensory epithelium and dissociating the epithelium into single cells. Approximately 5000 cells are entrapped in 40 μl of culture substrate (for example: Matrigel (Corning, Growth Factor Reduced)) and placed at the center of wells in a 24-well plate with 500 μl of an appropriate culture media, growth factors and agent being tested. Appropriate culture media and growth factors include Advanced DMEM/F12 with media Supplements (1×N2, 1×B27, 2 mM Glutamax, 10 mM HEPES, 1 mM N-acetylcysteine, and 100 U/ml Penicillin/[…] Streptomycin) and growth factors (50 ng/ml EGF, 50 ng/ml bFGF, and 50 ng/ml IGF-1) as well as the agent(s) being assessed are added into each well. Cells are cultured for 10 days in a standard cell culture incubator at 37° C. and 5% CO2, with media change every 2 days. The number of Lgr5+ cells is quantified by counting the number of cells identified as Lgr5+ in an In Vitro Lgr5 activity assay. The fraction of cells that are Lgr5+ is quantified by dividing the number of cells identified as Lgr5+ in a cell population by the total number of cells present in the cell population. The number of hair cells in a population may be measured by staining with hair cell marker (e.g., MyosinVIIa), or using an endogenous reporter of hair cell genes (e.g., Pou4f3-GFP, Atoh1-nGFP) and analyzing using flow cytometry. The fraction of cells that are hair cells is quantified by dividing the number of cells identified as hair cells in a cell population by the total number of cells present in the cell population. Gene and/or protein expression and/or activity is measured in this assay using methods known in the art such as by PCR, Nanostring, immunostaining, RNAseq, RNA hybridization, or Western blot analysis.
Neonatal Lgr5-EGFP-IRES-Cre-ER mice (The Jackson Laboratory, strain 8875) were used to analyze the effects of small molecules on cochlear stem cell expansion (see Barker et al., Nature 449, 1003-7 (2007). This strain allowed for visualization and quantification of EGFP cells.
All animal studies were conducted under an approved institutional protocol per National Institutes of Health guidelines. Using neonatal animals, cochleae were dissected and the organ of Corti (sensory epithelium) was separated from the stria vascularis (ion transport epithelium) and the modiolus (nerve tissue). Epithelia were then collected and treated with TrypLE for 15-20 minutes to obtain single cells. The cells were then filtered ([…]) and suspended in a Matrigel (Corning) dome for 3D culture seeded at 0.5 cochlea per well.
Expansion of Lgr5 Cells: Cells were cultured in a 3D system and bathed in a serum free 1:1 mixture of DMEM and F12, supplemented with Glutamax (GIBCO), N2, B27 (Invitrogen), EGF (50 ng/mL; Chemicon), bFGF (50 ng/mL; Chemicon), IGF-1 (50 ng/mL; Chemicon), and small molecules for seven days. Media was changed every other day. Treatments were run in triplicate or quadruplicate.
Lgr5 cells were quantified after 7-10 days. Cell colonies were dissociated into single cells using TrypLE. The cells were then stained with propidium iodide (PI) and analyzed using a flow cytometer to count Lgr5-EGFP cells. The percentage of viable Lgr5 cells was plotted against the concentration in GraphPad Prism.
Organ of Corti are dissected from Lgr5 GFP+ mice and dissociated as single cells as described above. Background media contains the same supplements and growth factors at the same concentrations as described above. […]

[2] = test system: HDAC; conditions: Table 5; cited from earlier work

## CCn1cc(C(=O)O)c(=O)c2c(N)c(F)c(NC3CCCCC3)cc21 [AS1842856]
[1]; AS1842856 425 nM combined with VPA 1 mM
  enrichment of Lgr5 cells (percentage): enriched according to percentage
[1]; AS1842856 425 nM in background of EFI
  expansion of cochlear Lgr5+ progenitor cells in culture: elicits the expansion
[1]; AS1842856 concentration series in background of EFI
  LGR5+ cell growth and enrichment / expansion of cochlear progenitor cells: concentration-dependent effects; also recorded: enhances expansion of cochlear progenitor cells

## Cc1c[nH]c(-c2cnc(NCCNc3ccc(C#N)cn3)nc2-c2ccc(Cl)cc2Cl)n1 [CHIR99021]
[1]; CHIR alone (GSK3 inhibition)
  expansion and enrichment of cochlear Lgr5 progenitor cells in culture: elicits the expansion and enrichment

## O=C([O-])CCCc1ccccc1.[Na+] [Na phenylbutyrate]
[2]
  Class selectivity: Class I >

## CC(C)(C)C(=O)Nc1ccc2c(c1)C(=O)C(=O)c1ccccc1-2 [SF1670]
[1]; SF1670 0.1 uM added to CHIR
  enhancement of CHIR-elicited expansion and enrichment of cochlear Lgr5 progenitor cells: further enhanced

## VO-Ohpic
[1]; VO-Ohpic 3 uM added to CHIR
  enhancement of CHIR-elicited expansion and enrichment of cochlear Lgr5 progenitor cells: enhanced
